Data as given in patent publication US10385070B2, “Chroman-spirocyclic piperidine amides as modulators of ion channels” (VERTEX PHARMACEUTICALS INCORPORATED, priority 2011, dated 2019).

Biological target: human NaV subtype, like NaV 1.7 (Homo sapiens, UniProt Q15858)
Assay: E-VIPR optical membrane potential assay with electrical stimulation
Assay type: cell-based
Conditions: active against one or more sodium channels; assay and NaV subtype not specified for Table 3; read-out: IC50 Binned Activity Data
From the text: Assays for Detecting and Measuring NaV Inhibition Properties of Compound E-VIPR Optical Membrane Potential Assay Method with Electrical Stimulation
Sodium channels are voltage-dependent proteins that can be activated by inducing membrane voltage changes by applying electric fields. The electrical stimulation instrument and methods of use are described in Ion Channel Assay Methods PCT/US01/21652, herein incorporated by reference and are referred to as E-VIPR. The instrument comprises a microtiter plate handler, an optical system for exciting the coumarin dye while simultaneously recording the coumarin and oxonol emissions, a waveform generator, a current- or voltage-controlled amplifier, and a device for inserting electrodes in well. Under integrated computer control, this instrument passes user-programmed electrical stimulus protocols to cells within the wells of the microtiter plate.
24 hours before the assay on E-VIPR, HEK cells expressing human NaV subtype, like NaV 1.7, are seeded in 384-well poly-lysine coated plates at 15,000-20,000 cells per well. Other subtypes are performed in an analogous mode in a cell line expressing the NaV of interest. HEK cells are grown in media (exact composition is specific to each cell type and NaV subtype) supplemented with 10% FBS (Fetal Bovine Serum, qualified; GibcoBRL #16140-071) and 1% Pen-Strep (Penicillin-Streptomycin; GibcoBRL #15140-122). Cells are grown in vented cap flasks, in 90% humidity and 10% CO2, to 100% confluence. They are usually split by trypsinization 1:10 or 1:20, depending on scheduling needs, and grown for 2-3 days before the next split.
100 mg/mL Pluronic F-127 (Sigma #P2443), in dry DMSO
Compound Plates: 384-well round bottom plate, e.g. Corning 384-well Polypropylene Round Bottom #3656
Cell Plates: 384-well tissue culture treated plate, e.g. Greiner #781091-1B
Bath1 buffer. Glucose 10 mM (1.8 g/L), Magnesium Chloride (Anhydrous), 1 mM (0.095 g/L), Calcium Chloride, 2 mM (0.222 g/L), HEPES 10 mM (2.38 g/L), Potassium Chloride, 4.5 mM (0.335 g/L), Sodium Chloride 160 mM (9.35 g/L).
Hexyl Dye Solution: Bath1 Buffer+0.5% β-cyclodextrin (make this prior to use, Sigma #C4767), 8 μM CC2-DMPE+2.5 μM DiSBAC6(3). To make the solution Add volume of 10% Pluronic F127 stock equal to volumes of CC2-DMPE+DiSBAC6(3). The order of preparation is first mix Pluronic and CC2-DMPE, then add DiSBAC6(3) while vortexing, then add Bath1+β-Cyclodextrin.
1) Pre-spot compounds (in neat DMSO) into compound plates. Vehicle control (neat DMSO), the positive control (20 mM DMSO stock tetracaine, 125 μM final in assay) and test compounds are added to each well at 160× desired final concentration in neat DMSO. Final compound plate volume will be 80 μL (80-fold intermediate dilution from 1 μL DMSO spot; 160-fold final dilution after transfer to cell plate). Final DMSO concentration for all wells in assay is 0.625%.
2) Prepare Hexyl Dye Solution.
3) Prepare cell plates. On the day of the assay, medium is aspirated and cells are washed three times with 100 μL of Bath1 Solution, maintaining 25 μL residual volume in each well.
4) Dispense 25 μL per well of Hexyl Dye Solution into cell plates. Incubate for 20-35 minutes at room temp or ambient conditions.
5) Dispense 80 μL per well of Bath1 into compound plates. Acid Yellow-17 (1 mM) is added and Potassium Chloride can be altered from 4.5 to 20 mM depending on the NaV subtype and assay sensitivity.
6) Wash cell plates three times with 100 μL per well of Bath1, leaving 25 μL of residual volume. Then transfer 25 uL per well from Compound Plates to Cell Plates. Incubate for 20-35 minutes at room temp/ambient condition
7) Read Plate on E-VIPR. Use the current-controlled amplifier to deliver stimulation wave pulses for typically 9 seconds and a scan rate of 400 Hz. A pre-stimulus recording is performed for 0.5 seconds to obtain the un-stimulated intensities baseline. […]

Sequence of human NaV subtype, like NaV 1.7 (Q15858 whole entry): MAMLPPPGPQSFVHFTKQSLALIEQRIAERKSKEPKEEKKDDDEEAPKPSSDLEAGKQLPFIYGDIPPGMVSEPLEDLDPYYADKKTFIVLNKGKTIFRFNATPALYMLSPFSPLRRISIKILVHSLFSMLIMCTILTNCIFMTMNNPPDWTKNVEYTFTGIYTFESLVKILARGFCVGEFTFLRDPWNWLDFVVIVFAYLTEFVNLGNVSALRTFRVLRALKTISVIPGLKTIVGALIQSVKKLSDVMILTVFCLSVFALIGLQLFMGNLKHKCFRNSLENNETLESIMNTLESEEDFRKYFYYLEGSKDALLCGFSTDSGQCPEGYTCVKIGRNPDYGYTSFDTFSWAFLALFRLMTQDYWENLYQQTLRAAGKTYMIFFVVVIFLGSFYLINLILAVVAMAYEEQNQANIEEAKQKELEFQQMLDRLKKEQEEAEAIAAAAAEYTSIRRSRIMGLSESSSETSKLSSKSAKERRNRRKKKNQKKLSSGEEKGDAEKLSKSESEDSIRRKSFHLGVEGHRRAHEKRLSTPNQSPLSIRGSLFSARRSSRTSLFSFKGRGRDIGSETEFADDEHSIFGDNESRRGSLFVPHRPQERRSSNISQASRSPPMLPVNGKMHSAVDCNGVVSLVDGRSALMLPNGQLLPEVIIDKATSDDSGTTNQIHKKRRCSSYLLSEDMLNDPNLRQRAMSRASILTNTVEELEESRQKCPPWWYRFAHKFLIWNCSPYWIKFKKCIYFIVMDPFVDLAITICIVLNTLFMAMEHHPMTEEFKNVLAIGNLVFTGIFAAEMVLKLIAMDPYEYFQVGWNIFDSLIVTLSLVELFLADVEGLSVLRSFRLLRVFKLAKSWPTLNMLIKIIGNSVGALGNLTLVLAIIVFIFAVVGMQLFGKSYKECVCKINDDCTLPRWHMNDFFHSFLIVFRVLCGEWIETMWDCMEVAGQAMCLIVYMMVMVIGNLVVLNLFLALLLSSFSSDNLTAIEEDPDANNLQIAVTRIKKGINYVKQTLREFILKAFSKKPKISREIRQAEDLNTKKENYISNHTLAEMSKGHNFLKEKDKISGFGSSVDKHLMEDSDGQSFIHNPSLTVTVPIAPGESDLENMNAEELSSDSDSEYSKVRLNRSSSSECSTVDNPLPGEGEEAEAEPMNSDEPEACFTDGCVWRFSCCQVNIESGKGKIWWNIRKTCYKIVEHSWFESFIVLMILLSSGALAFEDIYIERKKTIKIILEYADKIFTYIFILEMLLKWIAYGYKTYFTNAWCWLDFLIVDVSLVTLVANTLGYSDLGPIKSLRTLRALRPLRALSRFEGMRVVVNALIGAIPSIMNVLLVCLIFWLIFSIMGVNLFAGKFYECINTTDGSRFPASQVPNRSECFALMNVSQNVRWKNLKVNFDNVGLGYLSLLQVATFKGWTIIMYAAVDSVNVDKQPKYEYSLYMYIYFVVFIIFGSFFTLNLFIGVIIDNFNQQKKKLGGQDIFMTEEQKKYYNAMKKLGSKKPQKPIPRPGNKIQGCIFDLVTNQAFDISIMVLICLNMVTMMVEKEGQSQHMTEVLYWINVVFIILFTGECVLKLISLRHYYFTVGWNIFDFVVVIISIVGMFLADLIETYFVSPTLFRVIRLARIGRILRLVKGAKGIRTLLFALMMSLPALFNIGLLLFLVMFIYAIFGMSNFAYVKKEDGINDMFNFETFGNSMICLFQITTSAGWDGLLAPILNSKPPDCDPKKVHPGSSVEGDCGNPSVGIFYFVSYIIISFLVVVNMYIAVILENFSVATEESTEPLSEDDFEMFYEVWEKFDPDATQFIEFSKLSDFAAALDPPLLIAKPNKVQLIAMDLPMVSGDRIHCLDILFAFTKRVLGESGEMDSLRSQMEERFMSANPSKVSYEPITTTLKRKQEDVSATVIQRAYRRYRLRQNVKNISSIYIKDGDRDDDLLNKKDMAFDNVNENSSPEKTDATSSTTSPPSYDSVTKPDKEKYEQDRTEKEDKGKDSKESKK

`CC(C)CS(=O)(=O)c1ccc(C(=O)N2CCC3(CC2)C[C@@H](OC(C)C)c2cc(F)ccc2O3)cc1` [Compound 147] and `CC(C)O[C@@H]1CC2(CCN(C(=O)c3ccc(S(=O)(=O)C(C)(C)C)cc3)CC2)Oc2ccc(F)cc21` [Compound 59] cannot be ordered by IC50: at most 2000 nM for the first, at most 2000 nM for the second.

`CC(C)OC1CC2(CCN(C(=O)c3ccc(C(C)(C)O)c(F)c3)CC2)Oc2cc(F)ccc21` (stereo not drawn) [Compound 118] and `CC(C)O[C@@H]1CC2(CCN(C(=O)c3ccc(C(C)(C)O)c(F)c3)CC2)Oc2cc(F)ccc21` [Compound 130] cannot be ordered by IC50: at most 2000 nM for the first, 2000 to 5000 nM for the second.

First: CCO[C@@H]1CC2(CCN(C(=O)c3ccc(S(=O)(=O)C(C)C)cc3)CC2)Oc2ccc(F)cc21 [Compound 32]
Second: CCO[C@@H]1CC2(CCN(C(=O)c3ccc(S(=O)(=O)C(F)F)cc3)CC2)Oc2ccc(F)cc21 [Compound 121]
The IC50 of the first is lower: 2000 to 5000 nM for the first, over 5000 nM for the second. The first is the more potent here.

`COc1cc(C(=O)N2CCC3(CC2)CC(Oc2cccnc2)c2ccccc2O3)ccc1OC(C)C` (stereo not drawn) [Compound 145] and `COc1cc(C(=O)N2CCC3(CC2)CC(OC(C)C)c2ccccc2O3)ccc1OC(C)C` (stereo not drawn) [Compound 150] cannot be ordered by IC50: at most 2000 nM for the first, at most 2000 nM for the second.

`CC(C)O[C@@H]1CC2(CCN(C(=O)c3ccc(N(C)C(C)C)cn3)CC2)Oc2ccc(F)cc21` [Compound 16] and `CC(C)O[C@@H]1CC2(CCN(C(=O)c3ccc(S(=O)(=O)C(C)C)cn3)CC2)Oc2ccc(F)cc21` [Compound 175] cannot be ordered by IC50: at most 2000 nM for the first, at most 2000 nM for the second.

`Cc1cc(C(=O)N2CCC3(CCc4ccccc4O3)CC2)ccc1OC(C)C` [Compound 96] and `Cc1cc(C(=O)N2CCC3(CC2)C[C@H](OC(C)C)c2ccccc2O3)ccc1O` [Compound 149] cannot be ordered by IC50: at most 2000 nM for the first, at most 2000 nM for the second.

`CCOCC1CC2(CCN(C(=O)c3ccc(OC(C)C)c(OC)c3)CC2)Oc2ccccc21` (stereo not drawn) [Compound 56] and `COc1cc(C(=O)N2CCC3(CC2)CC(COC(C)C)c2ccccc2O3)ccc1OC(C)C` (stereo not drawn) [Compound 2] cannot be ordered by IC50: at most 2000 nM for the first, at most 2000 nM for the second.

`COc1cc(C(=O)N2CCC3(CC2)CC(OC(C)C)c2cccnc2O3)ccc1OC(C)C` (stereo not drawn) [Compound 84] and `Cc1cc(C(=O)N2CCC3(CC2)CC(OC(C)C)c2cccnc2O3)ccc1OC(C)C` (stereo not drawn) [Compound 45] cannot be ordered by IC50: at most 2000 nM for the first, at most 2000 nM for the second.

`Cc1cc(S(C)(=O)=O)ccc1C(=O)N1CCC2(CC1)C[C@@H](OC(C)C)c1cc(F)ccc1O2` [Compound 85] and `Cc1cc(S(=O)(=O)C(C)C)ccc1C(=O)N1CCC2(CC1)C[C@@H](OC(C)C)c1cc(F)ccc1O2` [Compound 11] cannot be ordered by IC50: 2000 to 5000 nM for the first, at most 2000 nM for the second.

`COc1cc(C(=O)N2CCC3(CC2)CC(OCC2CC2)c2ccccc2O3)ccc1OC(C)C` (stereo not drawn) [Compound 158] and `COc1cc(C(=O)N2CCC3(CC2)CC(OC2CCC2)c2ccccc2O3)ccc1OC(C)C` (stereo not drawn) [Compound 172] cannot be ordered by IC50: at most 2000 nM for the first, at most 2000 nM for the second.

`COc1cc(C(=O)N2CCC3(CC2)CC(OC(C)C)c2cccc(F)c2O3)ccc1OC(C)C` (stereo not drawn) [Compound 177] and `COc1cc(C(=O)N2CCC3(CC2)C[C@@H](OC(C)C)c2ccccc2O3)ccc1OC(F)F` [Compound 70] cannot be ordered by IC50: at most 2000 nM for the first, 2000 to 5000 nM for the second.

`Cc1cc(C(=O)N2CCC3(CC2)CC(OC(C)C)c2ccncc2O3)ccc1OC(C)C` (stereo not drawn) [Compound 37] and `Cc1cc(C(=O)N2CCC3(CC2)CC(OC(C)C)c2nn(C)cc2O3)ccc1OC(C)C` (stereo not drawn) [Compound 104] cannot be ordered by IC50: at most 2000 nM for the first, at most 2000 nM for the second.

`COc1cc(C(=O)N2CCC3(CC2)CC(COC(F)F)c2ccccc2O3)ccc1OC(C)C` (stereo not drawn) [Compound 63] and `COc1cc(C(=O)N2CCC3(CC2)CC(C(C)OC)c2ccccc2O3)ccc1OC(C)C` (stereo not drawn) [Compound 6] cannot be ordered by IC50: at most 2000 nM for the first, at most 2000 nM for the second.

`CC(C)O[C@@H]1CC2(CCN(C(=O)c3ccc(S(=O)(=O)C(F)F)cc3)CC2)Oc2ccc(F)cc21` [Compound 110] and `CC(C)OC1CC2(CCN(C(=O)c3ccc(S(=O)(=O)C(C)C)cc3)CC2)Oc2c(F)cccc21` (stereo not drawn) [Compound 78] cannot be ordered by IC50: at most 2000 nM for the first, at most 2000 nM for the second.

`Cc1cc(C(=O)N2CCC3(CC2)C[C@@H](OC(C)C)c2cc(F)cc(F)c2O3)ccc1S(=O)(=O)C(C)C` [Compound 27] and `CCS(=O)(=O)c1ccc(C(=O)N2CCC3(CC2)C[C@@H](OC(C)C)c2cc(F)cc(F)c2O3)cc1C` [Compound 4] cannot be ordered by IC50: at most 2000 nM for the first, 2000 to 5000 nM for the second.

`CC(C)Oc1ccc(C(=O)N2CCC3(CC2)CC(OC(C)C)c2ccccc2O3)cc1C#N` (stereo not drawn) [Compound 76] and `Cc1nc(C(=O)N2CCC3(CC2)C[C@@H](OC(C)C)c2ccccc2O3)ccc1OC(C)C` [Compound 80] cannot be ordered by IC50: at most 2000 nM for the first, at most 2000 nM for the second.

`CC(C)O[C@@H]1CC2(CCN(C(=O)c3ccc4c(cnn4C)c3)CC2)Oc2ccccc21` [Compound 137] and `Cc1cc(C(=O)N2CCC3(CC2)C[C@@H](OC(C)C)c2ccccc2O3)ccc1O` [Compound 36] cannot be ordered by IC50: at most 2000 nM for the first, at most 2000 nM for the second.

`Cc1cc(C(=O)N2CCC3(CC2)C[C@@H](O)c2cc(F)ccc2O3)ccc1OC(C)C` [Compound 122] and `CC(C)Oc1ccc(C(=O)N2CCC3(CC2)C[C@@H](OC(C)C)c2cc(F)ccc2O3)cc1F` [Compound 112] cannot be ordered by IC50: at most 2000 nM for the first, at most 2000 nM for the second.

`COc1cc(C(=O)N2CCC3(CC2)CC(OC(C)C)c2ccccc2S3(=O)=O)ccc1OC(C)C` (stereo not drawn) [Compound 81] and `COc1cc(C(=O)N2CCC3(CC2)Oc2ccccc2C(OC(C)C)C3(C)C)ccc1OC(C)C` (stereo not drawn) [Compound 151] cannot be ordered by IC50: at most 2000 nM for the first, at most 2000 nM for the second.

`CC(C)OC1CC2(CCN(C(=O)c3ccc(S(=O)(=O)C(C)C)c(C#N)c3)CC2)Oc2ccc(F)cc21` (stereo not drawn) [Compound 29] and `CCOc1ccc(C(=O)N2CCC3(CC2)C[C@@H](OC(C)C)c2cc(F)ccc2O3)nc1` [Compound 129] cannot be ordered by IC50: at most 2000 nM for the first, 2000 to 5000 nM for the second.

`COc1cc(C(=O)N2CCC3(CC2)CC(COC(C)C)c2ccccc2O3)ccc1C(C)(C)O` (stereo not drawn) [Compound 163] and `COc1cc(C(=O)N2CCC3(CC2)C[C@@H](OC(C)C)c2ccccc2O3)ccc1C(C)(C)CO` [Compound 160] cannot be ordered by IC50: at most 2000 nM for the first, at most 2000 nM for the second.

`CC(C)O[C@@H]1CC2(CCN(C(=O)c3ccc(N4CC(C)OC(C)C4)cn3)CC2)Oc2ccc(F)cc21` (stereo partly drawn) [Compound 176] and `CC1CCCN(c2ccc(C(=O)N3CCC4(CC3)C[C@@H](OC(C)C)c3cc(F)ccc3O4)nc2)C1` (stereo partly drawn) [Compound 132] cannot be ordered by IC50: at most 2000 nM for the first, at most 2000 nM for the second.

`CCc1ccc(C(=O)N2CCC3(CC2)C[C@@H](OC(C)C)c2ccccc2O3)cc1OC` [Compound 50] and `COc1cc(O)ccc1C(=O)N1CCC2(CC1)C[C@H](OC(C)C)c1ccccc1O2` [Compound 144] cannot be ordered by IC50: at most 2000 nM for the first, at most 2000 nM for the second.

`CCCNc1ccc(C(=O)N2CCC3(CC2)C[C@@H](OC(C)C)c2cc(F)ccc2O3)nc1` [Compound 178] and `CC(C)O[C@@H]1CC2(CCN(C(=O)c3ccc(N4CC5CC4CO5)cn3)CC2)Oc2ccc(F)cc21` (stereo partly drawn) [Compound 95] cannot be ordered by IC50: at most 2000 nM for the first, at most 2000 nM for the second.

`COCOC1Cc2ccccc2OC12CCN(C(=O)c1ccc(OC(C)C)c(OC)c1)CC2` (stereo not drawn) [Compound 135] and `COc1cc(C(=O)N2CCC3(CC2)CC(OC(C)(C)C)c2ccccc2O3)ccc1OC(C)C` (stereo not drawn) [Compound 128] cannot be ordered by IC50: at most 2000 nM for the first, at most 2000 nM for the second.

`CC(C)Oc1ccc(C(=O)N2CCC3(CC2)C[C@@H](OC(C)C)c2ccccc2O3)c(F)c1` [Compound 74] and `Cc1nc(C(=O)N2CCC3(CC2)C[C@H](OC(C)C)c2ccccc2O3)ccc1OC(C)C` [Compound 107] cannot be ordered by IC50: at most 2000 nM for the first, at most 2000 nM for the second.

Compared with `CC(C)OC1CC2(CCN(C(=O)c3ccccc3OC(F)F)CC2)Oc2ccccc21` (stereo not drawn) [Compound 88], `CC(C)O[C@@H]1CC2(CCN(C(=O)c3ccc(N4CCCC4)cn3)CC2)Oc2ccccc21` [Compound 102] is higher in IC50: at most 2000 nM for the first, over 5000 nM for the second.
